Measurements as given in paper PMC9544090, “BioWF: A Naturally‐Fused, Di‐Domain Biocatalyst from Biotin Biosynthesis Displays an Unexpectedly Broad Substrate Scope” (Chembiochem, 2022).

Columns and labels:
[1] = tested on: CaBioWF; details: ATP 1 mM, CoASH 1 mM, MgCl2 5 mM, pH 8, 30 °C, 5 h; mutant mass 68567 Da printed, so tag probably kept
[2] = target: T1, CaBioWF (Corynebacterium amycolatum, UniProt E2MUP3); assay: UV-Vis titration, PLP ketoenamine peak at […] nm, hyperbolic fit; format: binding
T1 construct: full-length natural di-domain fusion; synthetic gene in pET-28a, E. coli BL21(DE3); His tag removed by TEV; homodimer by SEC

[3] = tested on: O=C(O)CCCCCC(=O)O; assay: purified protein; details: BioW domain, CoASH 1 mM, ATP 1 mM, MgCl2 10 mM, pH 8, 30 °C

Chain of CaBioWF (DOC9544090_1 entry or part of it F192Y): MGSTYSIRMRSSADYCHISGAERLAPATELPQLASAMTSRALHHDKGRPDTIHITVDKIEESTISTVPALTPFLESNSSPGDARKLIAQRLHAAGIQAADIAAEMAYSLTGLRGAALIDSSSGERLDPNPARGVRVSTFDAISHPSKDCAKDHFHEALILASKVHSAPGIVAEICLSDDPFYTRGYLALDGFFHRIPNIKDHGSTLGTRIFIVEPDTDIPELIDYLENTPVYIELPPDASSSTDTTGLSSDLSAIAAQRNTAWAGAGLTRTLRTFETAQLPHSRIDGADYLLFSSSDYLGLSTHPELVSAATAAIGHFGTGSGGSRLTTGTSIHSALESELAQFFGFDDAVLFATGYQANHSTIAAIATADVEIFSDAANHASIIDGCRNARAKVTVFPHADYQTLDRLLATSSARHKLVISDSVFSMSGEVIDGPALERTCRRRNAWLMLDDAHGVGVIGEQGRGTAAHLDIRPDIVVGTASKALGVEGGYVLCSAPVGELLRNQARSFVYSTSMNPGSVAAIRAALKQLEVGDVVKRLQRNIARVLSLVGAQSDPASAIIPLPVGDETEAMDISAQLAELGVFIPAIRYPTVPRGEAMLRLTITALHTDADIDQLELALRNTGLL

In the case of `O=C(O)CCCCCC(=O)O` [DC7, pimelic acid], the “HPLC of acyl-CoA product, 260 nm” value [1] is reported as “acyl‐CoA product formation was only observed for the natural DC7 pimelic acid substrate”.
In the case of `NCC(=O)O` [Gly], the Kd [2] is reported as 16.1 ± 1.95 mM.
Work on `C[C@H](N)C(=O)O` [ʟ‐Ala] yielded a Kd [2] of 1.83 ± 0.25 mM.
With “CaBioWF (Corynebacterium amycolatum SK46)” the Km [3] was 58.6 ± 3 µM and the kcat [3] was 0.21 s⁻¹.
